Experimental findings from PubChem BioAssay AID489019 (Sanford-Burnham Center for Chemical Genomics, 2010) are described below.

Activity calls are given as the source filed them. How the calls were made is not given here.

The subject of the assay is HEK-293T NF-kB-Luc cytotoxicity, resazurin fluorescence, 15 h. Put plainly: cytotoxicity in HEK-293T NF-kB-Luc cells, dose response, cytotoxicity control for B/T-cell NF-kB inhibitor project, cell-based, uHTS hits (AID 489019).

Take `CC(=O)OC[C@]12CCC(C)=C[C@H]1O[C@@H]1[C@H](O)[C@@H](OC(C)=O)[C@@]2(C)[C@]12CO2`: the IC50 (in general, the concentration that inhibits the measured activity by half) is > 80 µM (inactive).
